Source: the NIST ThermoML archive (doi:10.1016/j.fluid.2004.07.015)
Numbers after ± are expanded uncertainties.

Conditions: 101.33 kPa, Liquid

CCCCn1cc[n+](C)c1.F[P-](F)(F)(F)(F)F [1-butyl-3-methylimidazolium hexafluorophosphate]
Conditions | mass density [kg/m3]
289.1 K | 1372.6 ± 3
291.1 K | 1370.8 ± 2.9
293.1 K | 1369.1 ± 2.9
295.1 K | 1367.4 ± 2.9
297.05 K | 1365.8 ± 2.9
299.1 K | 1364.1 ± 2.9
301.05 K | 1362.4 ± 2.9
303.15 K | 1360.6 ± 2.9
305.1 K | 1359 ± 2.9
307.15 K | 1357.3 ± 2.9
309.15 K | 1355.6 ± 2.9
